Data as given in patent publication US8618082B2, “Lupeol anti-tumor agent and uses thereof” (Wisconsin Alumni Research Foundation, priority 2004, dated 2013).

Key:
[1] = tested on: Fas receptor in LNCaP cells; assay: Fas-siRNA silenced LNCaP cells: Fas expression and viability; type: cell-based, human; conditions: vs LNCaP cells with Fas receptor expression treated with Lupeol
Description: FIG. 17 depicts effect of Lupeol treatment on the growth of CaP cells transfected with Fas-siRNA and on the expression of Fas receptor in Fas-silenced CaP cells: (A). Cells were treated with specified concentrations of Lupeol alone, anti-Fas mAb or non-sense siRNA (negative control), Fas-siRNA, combination (Lupeol+Fas-siRNA) and combination (anti-Fas mAb+Fas-siRNA). The expression of Fas receptor protein in total cell lysate was determined by western blot analysis. Equal loading was confirmed by stripping immunoblots and reprobing them for β-actin. The immunoblots shown here are representative of three independent experiments with similar results. (B). Cells were treated with specified concentrations of Lupeol alone, anti-Fas mAb or non-sense siRNA (negative control), Fas-siRNA, combination (Lupeol+Fas-siRNA) and combination (anti-Fas mAb+Fas-siRNA). The values represent percent viable cells where vehicle-treated cells were regarded as 100% viable. Data represents mean value of percent viable cells±S.E of three independent experiments.
To determine whether Lupeol induces apoptosis of LNCaP cells selectively through Fas receptor, we used siRNA technology. siRNA's have the ability to silence […] any specific protein. We designed siRNA against Fas receptor protein and treated LNCaP cell with them.

CD-1 mouse skin = type: in vivo
Description: FIG. 8. Two stage carcinogenesis tumor data in CD-1 mice: Inhibitory effect of Lupeol on DMBA-initiated and TPA-promoted tumor formation in CD-1 mice: In each group, 20 animals were used. Tumorigenesis was initiated in the animals by a single topical application of 200 nmol DMBA in 0.2 ml vehicle on the dorsal shaved skin, and 1 week later, the tumor growth was promoted with twice-weekly applications of 3.2 nmol TPA in 0.2 ml vehicle. To assess its anti-skin tumor-promoting effect, Lupeol at a dose of 2 mg/animal was applied topically 30 min prior to each TPA application in different groups. Treatment with TPA alone or Lupeol plus TPA was repeated twice weekly up to the termination of the experiments at 28 weeks. Animals in all the groups were watched for any apparent signs of toxicity, such as weight loss or mortality during the entire period of study. Skin tumor formation was recorded weekly, and tumors larger than 1 mm in diameter were included in the cumulative number only if they persisted for 2 weeks or more. The tumor data is represented as the percentage of mice with tumors (a), the number of tumors per mouse (b) and the number of tumors per group (c). The data was analyzed by Wilcoxon rank sum test and χ^2 analysis.
Female CD-1 mice were used in DMBA- and TPA-induced, two-stage skin tumorigenesis protocol as described earlier (Katiyar et al., 1996). The dorsal side of the skin was shaved using electric clippers, and the mice with hair cycles in the resting phase were used for tumor studies. In each group, 20 animals were used. Tumorigenesis was initiated in the animals by a single topical application of 200 nmol DMBA in 0.2 ml vehicle on the dorsal shaved skin, and 1 week later, the tumor growth was promoted with twice-weekly applications of 3.2 nmol TPA in 0.2 ml vehicle. […] Treatment with TPA alone or Lupeol plus TPA was repeated twice weekly up to the termination of the experiments at 28 weeks. Animals in all the groups were watched for any apparent signs of toxicity, such as weight loss or mortality during the entire period of study. Skin tumor formation was recorded weekly, and tumors larger than 1 mm in diameter were included in the cumulative number only if they persisted for 2 weeks or more.
A two-tailed Student's t test was used to assess the statistical significance between the TPA treated and Lupeol+TPA treated groups. A p value<0.05 was considered statistically significant. In tumorigenesis experiments, the statistical significance of difference between TPA and Lupeol+TPA groups was evaluated by the Wilcoxon rank sum test and χ^2 analysis.

[2] = Lupeol 2 mg/animal, 28 weeks, vs non-Lupeol treated group

## C=C(C)[C@@H]1CC[C@]2(C)CC[C@]3(C)[C@H](CC[C@@H]4[C@@]5(C)CC[C@H](O)C(C)(C)[C@@H]5CC[C@]43C)[C@@H]12 [Lupeol, Lup-20(29)-en-3β-ol]
[1]
  cell death of Fas-silenced LNCaP cells: reduced cell death
CD-1 mouse skin; Lupeol 2 mg/animal topical 30 min prior to each TPA, 28 weeks, non-Lupeol group 100%
  percentage of mice with skin tumors: 53%
CD-1 mouse skin; Lupeol 2 mg/animal, 28 weeks, 20 animals, non-Lupeol group 125
  total number of tumors per group: 33 tumors
CD-1 mouse skin; [2]
  inhibition of number of tumors per mouse: 74%
  inhibition of total number of tumors: 74%
CD-1 mouse skin; Lupeol 2 mg/animal, 28 weeks, non-Lupeol group 6.25
  number of tumors per mouse: 1.65 tumors per mouse
CD-1 mouse skin; Lupeol 2 mg/animal, p<0.05, χ2 test
  latency period of tumor formation: significantly increased
CD-1 mouse skin; Lupeol treatment for 28 weeks, data not shown
  body weight gain: did not significantly affect
CD-1 mouse skin; mouse, in vivo
  signs of toxicity: none of the treated mice exhibited any signs of toxicity
